Source: ChEMBL document CHEMBL1201862, “PubChem BioAssay data set” (2004)
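Protocol summary: plate cells (96-well), add compound at 5 concentrations, incubate 48 h, interpolate endpoints linearly. GI50: concentration for 50% inhibition of growth.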 Active and inactive are the calls of the source. No stated cut-off is given here; in the data, active = GI50 up to about 1.1 µM and inactive = higher.

Key:
Assay in all cases: NCI tumour cell line growth inhibition, 48 h
A549 = test system: A549
ACHN = test system: ACHN
CAKI-1 = test system: CAKI-1
CCRF-CEM = test system: CCRF-CEM
COLO 205 = test system: COLO 205
DLD-1 = test system: DLD-1
DMS-114 = test system: DMS-114
DMS-273 = test system: DMS-273
EKVX = test system: EKVX
HCC 2998 = test system: HCC 2998
HCT-116 = test system: HCT-116
HCT-15 = test system: HCT-15
HL-60 = test system: HL-60
HOP-62 = test system: HOP-62
HOP-92 = test system: HOP-92
HT-29 = test system: HT-29
IGROV-1 = test system: IGROV-1
K562 = test system: K562
KM-20L2 = test system: KM-20L2
KM12 = test system: KM12
LOX IMVI = test system: LOX IMVI
LXFL 529 = test system: LXFL 529
M14 = test system: M14
M19-MEL = test system: M19-MEL
MOLT-4 = test system: MOLT-4
Malme-3M = test system: Malme-3M
NCI-H226 = test system: NCI-H226
NCI-H460 = test system: NCI-H460
NCI-H522 = test system: NCI-H522
OVCAR-3 = test system: OVCAR-3
OVCAR-4 = test system: OVCAR-4
OVCAR-5 = test system: OVCAR-5
OVCAR-8 = test system: OVCAR-8
RPMI-8226 = test system: RPMI-8226
RXF 393 = test system: RXF 393
SF-268 = test system: SF-268
SF-295 = test system: SF-295
SF-539 = test system: SF-539
SK-MEL-28 = test system: SK-MEL-28
SK-MEL-2 = test system: SK-MEL-2
SK-OV-3 = test system: SK-OV-3
SN12C = test system: SN12C
SNB-19 = test system: SNB-19
SNB-75 = test system: SNB-75
SR = test system: SR
SW-620 = test system: SW-620
TK-10 = test system: TK-10
UACC-62 = test system: UACC-62
UO-31 = test system: UO-31
XF498 = test system: XF498
786-0 = test system: 786-0
NCI-H23 = test system: NCI-H23
SK-MEL-5 = test system: SK-MEL-5
SNB-78 = test system: SNB-78
UACC-257 = test system: UACC-257
A498 = test system: A498
HOP-18 = test system: HOP-18
MCF7 = test system: MCF7
NCI/ADR-RES = test system: NCI/ADR-RES
U-251 = test system: U-251

In the case of `Cc1cc2c(C(C)C)c(O)c(O)c(/C=N/c3ccccc3)c2c(O)c1-c1c(C)cc2c(C(C)C)c(O)c(O)c(/C=N/c3ccccc3)c2c1O`, the GI50 (A549) is reported as > 100 µM (inactive), the GI50 (ACHN) is reported as > 100 µM (inactive) and the GI50 (CAKI-1) is reported as > 100 µM (inactive). For the same compound, the GI50 (CCRF-CEM) was > 100 µM (inactive), the GI50 (COLO 205) was > 100 µM (inactive) and the GI50 (DLD-1) was > 100 µM (inactive). The GI50 (DMS-114) was > 100 µM (inactive), the GI50 (DMS-273) was > 100 µM (inactive) and the GI50 (EKVX) was > 100 µM (inactive). For the same compound, the GI50 (HCC 2998) was > 100 µM (inactive), the GI50 (HCT-116) was > 100 µM (inactive) and the GI50 (HCT-15) was over 100 µM. The GI50 (HL-60) was > 100 µM (inactive), the GI50 (HOP-62) was > 100 µM (inactive) and the GI50 (HOP-92) was > 100 µM (inactive). The GI50 (HT-29) was > 100 µM (inactive), the GI50 (IGROV-1) was > 100 µM (inactive) and the GI50 (K562) was > 100 µM (inactive). The GI50 (KM-20L2) was > 100 µM (inactive), the GI50 (KM12) was > 100 µM (inactive) and the GI50 (LOX IMVI) was > 100 µM (inactive). The GI50 (LXFL 529) was > 100 µM (inactive), the GI50 (M14) was > 100 µM (inactive) and the GI50 (M19-MEL) was > 100 µM (inactive). The GI50 (MOLT-4) was > 100 µM (inactive), the GI50 (Malme-3M) was > 100 µM (inactive) and the GI50 (NCI-H226) was > 100 µM (inactive). The GI50 (NCI-H460) was > 100 µM (inactive), the GI50 (NCI-H522) was > 100 µM (inactive) and the GI50 (OVCAR-3) was > 100 µM (inactive). The GI50 (OVCAR-4) was > 100 µM (inactive), the GI50 (OVCAR-5) was > 100 µM (inactive) and the GI50 (OVCAR-8) was > 100 µM (inactive). For the same compound, the GI50 (RPMI-8226) was > 100 µM (inactive), the GI50 (RXF 393) was > 100 µM (inactive) and the GI50 (SF-268) was > 100 µM (inactive). The GI50 (SF-295) was > 100 µM (inactive), the GI50 (SF-539) was > 100 µM (inactive) and the GI50 (SK-MEL-28) was > 100 µM (inactive). For the same compound, the GI50 (SK-MEL-2) was > 100 µM (inactive), the GI50 (SK-OV-3) was > 100 µM (inactive) and the GI50 (SN12C) was > 100 µM (inactive). The GI50 (SNB-19) was > 100 µM (inactive), the GI50 (SNB-75) was 67.8 µM (inactive) and the GI50 (SR) was > 100 µM (inactive). For the same compound, the GI50 (SW-620) was > 100 µM (inactive), the GI50 (TK-10) was > 100 µM (inactive) and the GI50 (UACC-62) was > 100 µM (inactive). The GI50 (UO-31) was > 100 µM (inactive) and the GI50 (XF498) was > 100 µM (inactive).

`COc1ccc(CNc2cc(OC)cc(OC)c2)cc1` was tested, and the GI50 (786-0) was > 52.2 µM (inactive), the GI50 (A549) was > 100 µM (inactive) and the GI50 (ACHN) was > 100 µM (inactive). For the same compound, the GI50 (DMS-114) was 49 µM (inactive), the GI50 (EKVX) was > 76.6 µM (inactive) and the GI50 (HCC 2998) was > 100 µM (inactive). For the same compound, the GI50 (HL-60) was > 46.5 µM (inactive), the GI50 (HOP-92) was 65.5 µM (inactive) and the GI50 (K562) was 22.4 µM (inactive). For the same compound, the GI50 (KM12) was 84.3 µM (inactive), the GI50 (LXFL 529) was 85.7 µM (inactive) and the GI50 (M19-MEL) was > 100 µM (inactive). For the same compound, the GI50 (MOLT-4) was > 81.8 µM (inactive), the GI50 (Malme-3M) was > 72.8 µM (inactive) and the GI50 (NCI-H23) was > 80.2 µM (inactive). For the same compound, the GI50 (NCI-H522) was 35.8 µM (inactive), the GI50 (OVCAR-4) was 77.1 µM (inactive) and the GI50 (OVCAR-8) was > 69.8 µM (inactive). For the same compound, the GI50 (RPMI-8226) was 58.9 µM (inactive), the GI50 (RXF 393) was > 68.4 µM (inactive) and the GI50 (SF-268) was > 62.1 µM (inactive). The GI50 (SK-MEL-28) was 44.4 µM (inactive), the GI50 (SK-MEL-2) was > 85.7 µM (inactive) and the GI50 (SK-MEL-5) was 60.5 µM (inactive). For the same compound, the GI50 (SK-OV-3) was > 80 µM (inactive), the GI50 (SNB-75) was > 42 µM (inactive) and the GI50 (SNB-78) was 38.1 µM (inactive). For the same compound, the GI50 (TK-10) was > 100 µM (inactive), the GI50 (UACC-257) was > 91.8 µM (inactive) and the GI50 (UACC-62) was 87.7 µM (inactive). The GI50 (UO-31) was 49.2 µM (inactive) and the GI50 (XF498) was > 100 µM (inactive).

`NC1(C(=O)O)CCc2ccc(N(CCCl)CCCl)cc2C1` (centres undefined) was tested, and the GI50 (A498) was > 100 µM (inactive), the GI50 (A549) was 61.7 µM (inactive) and the GI50 (CCRF-CEM) was 5.32 µM (inactive). For the same compound, the GI50 (COLO 205) was > 100 µM (inactive), the GI50 (DLD-1) was > 100 µM (inactive) and the GI50 (DMS-114) was 45.9 µM (inactive). For the same compound, the GI50 (DMS-273) was 38.8 µM (inactive), the GI50 (EKVX) was > 100 µM (inactive) and the GI50 (HCC 2998) was > 100 µM (inactive). The GI50 (HCT-116) was 0.01 µM (active), the GI50 (HCT-15) was over 100 µM and the GI50 (HL-60) was 9.82 µM (inactive). The GI50 (HOP-18) was > 100 µM (inactive), the GI50 (HOP-62) was 22.4 µM (inactive) and the GI50 (HOP-92) was > 100 µM (inactive). For the same compound, the GI50 (HT-29) was > 100 µM (inactive), the GI50 (IGROV-1) was > 100 µM (inactive) and the GI50 (K562) was > 100 µM (inactive). The GI50 (KM-20L2) was > 100 µM (inactive), the GI50 (KM12) was > 100 µM (inactive) and the GI50 (LOX IMVI) was 39.7 µM (inactive). The GI50 (M19-MEL) was 85.5 µM (inactive), the GI50 (MCF7) was 33.8 µM (inactive) and the GI50 (MOLT-4) was 4.74 µM (inactive). The GI50 (Malme-3M) was 1 µM (active), the GI50 (NCI-H226) was > 100 µM (inactive) and the GI50 (NCI-H23) was > 100 µM (inactive). The GI50 (NCI-H460) was 10.2 µM (inactive), the GI50 (NCI-H522) was 26.7 µM (inactive) and the GI50 (NCI/ADR-RES) was > 100 µM (inactive). The GI50 (OVCAR-3) was > 100 µM (inactive), the GI50 (OVCAR-4) was > 100 µM (inactive) and the GI50 (OVCAR-5) was 39.9 µM (inactive). The GI50 (OVCAR-8) was > 100 µM (inactive), the GI50 (RPMI-8226) was 84.3 µM (inactive) and the GI50 (RXF 393) was > 100 µM (inactive). For the same compound, the GI50 (SF-268) was 24.3 µM (inactive), the GI50 (SF-295) was 29.6 µM (inactive) and the GI50 (SF-539) was 34.5 µM (inactive). The GI50 (SK-MEL-28) was > 100 µM (inactive), the GI50 (SK-MEL-2) was 38.7 µM (inactive) and the GI50 (SK-MEL-5) was 57.3 µM (inactive). The GI50 (SK-OV-3) was > 100 µM (inactive), the GI50 (SN12C) was 49.3 µM (inactive) and the GI50 (SNB-19) was > 100 µM (inactive). The GI50 (SNB-75) was 98.2 µM (inactive), the GI50 (SW-620) was > 100 µM (inactive) and the GI50 (U-251) was 23.8 µM (inactive). For the same compound, the GI50 (UACC-257) was > 100 µM (inactive), the GI50 (UACC-62) was 22.5 µM (inactive) and the GI50 (UO-31) was > 100 µM (inactive). The GI50 (XF498) was 43.1 µM (inactive).
